Where a SMILES comes first, the peptide text is derived from it. The star is where a group is joined. Bz = O=C(c1ccccc1)*
Columns and labels:
[1] = system: cultured rat pituitary cells; assay: Secretion of ACTH and β-endorphin by cultured rat pituitary cells; format: cell-based; details: general procedure set forth in Example III; in vitro or in vivo not specified
Method: The synthetic and the natural CRF were examined for their effects on the secretion of ACTH and β-endorphin in vitro and the synthetic CRF was also examined in vivo. The high potency of synthetic and natural CRF to stimulate the secretion of ACTH and β-endorphin by cultured rat pituitary cells was measured. […] The secretory response to maximal (>5 nM) concentrations of CRF is at a plateau level. In vivo doses from 30 ng to 3 μg/Kg of body weight rapidly elevated ACTH and β-endorphin-like (β-END-LI) secretions 5-20 fold.

[2] = Blood pressure in rats (mean carotid blood pressure, urethane-anesthetized rat); format: in vivo; details: general procedure set forth in Example III
Method: Plasma levels of ACTH and β-END-LI are elevated for at least 5-20 minutes following the intravenous administration of CRF to nembutal-anesthesized male rats and to quiescent male or female rats with indwelling intravenous cannulae. […] Mean cartoid blood pressure in a urethane-anesthesized rat fell from 87 to 72±2 mm Hg and remained at that level for 30 minutes following an injection equal to 3 μg CRF/Kg body weight; the subsequent administration of an injection equal to 30 μg CRF/Kg body weight lowered mean blood pressure to 42±3 mm Hg for more than 2 hours.

Row | SMILES | Stimulation of secretion of ACTH and β-END-LI (in words) [1] | Lowering of blood pressure (in words) [2]
1 | CC[C@H](C)[C@H](NC(=O)[C@H](CC(=O)O)NC(=O)[C@H](CC(C)C)NC(=O)[C@H](CC(C)C)NC(=O)[C@H](CCCCN)NC(=O)[C@H](CCCNC(=N)N)NC(=O)[C@H](CC(N)=O)NC(=O)[C@H](CO)NC(=O)[C@H](Cc1c[nH]cn1)NC(=O)[C@H](C)NC(=O)[C@H](CCC(N)=O)NC(=O)[C@H](CCC(N)=O)NC(=O)[C@H](C)NC(=O)[C@H](CC(C)C)NC(=O)[C@H](CCC(N)=O)NC(=O)[C@H](CC(=O)O)NC(=O)[C@H](C)NC(=O)[C@H](CCCCN)NC(=O)[C@@H](NC(=O)[C@H](CCSC)NC(=O)[C@H](CCC(=O)O)NC(=O)[C@H](CC(C)C)NC(=O)[C@@H](NC(=O)[C@H](CCC(=O)O)NC(=O)[C@H](CCCNC(=N)N)NC(=O)[C@H](CC(C)C)NC(=O)[C@H](CC(C)C)NC(=O)[C@H](Cc1c[nH]cn1)NC(=O)[C@H](Cc1ccccc1)NC(=O)[C@@H](NC(=O)[C@H](CC(C)C)NC(=O)[C@H](CC(=O)O)NC(=O)[C@H](CC(C)C)NC(=O)[C@H](CO)NC(=O)[C@@H](NC(=O)[C@@H]1CCCN1C(=O)[C@@H]1CCCN1C(=O)[C@H](CCC(=O)O)NC(=O)[C@H](CCC(N)=O)NC(=O)[C@H](C)NC(C)=O)[C@@H](C)CC)[C@@H](C)O)C(C)C)[C@@H](C)O)C(=O)N[C@@H](C)C(N)=O [[Acetyl-Ala^1]-CRF] | stimulates the secretion of ACTH and β-END-LI | very significant lowering of blood pressure
2 | CC[C@H](C)[C@H](NC(=O)[C@H](CC(=O)O)NC(=O)[C@H](CC(C)C)NC(=O)[C@H](CC(C)C)NC(=O)[C@H](CCCCN)NC(=O)[C@H](CCCNC(=N)N)NC(=O)[C@H](CC(N)=O)NC(=O)[C@H](CO)NC(=O)[C@H](Cc1c[nH]cn1)NC(=O)[C@H](C)NC(=O)[C@H](CCC(N)=O)NC(=O)[C@H](CCC(N)=O)NC(=O)[C@H](C)NC(=O)[C@H](CC(C)C)NC(=O)[C@H](CCC(N)=O)NC(=O)[C@H](CC(=O)O)NC(=O)[C@H](C)NC(=O)[C@H](CCCCN)NC(=O)[C@@H](NC(=O)[C@H](CCSC)NC(=O)[C@H](CCC(=O)O)NC(=O)[C@H](CC(C)C)NC(=O)[C@@H](NC(=O)[C@H](CCC(=O)O)NC(=O)[C@H](CCCNC(=N)N)NC(=O)[C@H](CC(C)C)NC(=O)[C@H](CC(C)C)NC(=O)[C@H](Cc1c[nH]cn1)NC(=O)[C@H](Cc1ccccc1)NC(=O)[C@@H](NC(=O)[C@H](CC(C)C)NC(=O)[C@H](CC(=O)O)NC(=O)[C@H](CC(C)C)NC(=O)[C@H](CO)NC(=O)[C@@H](NC(=O)[C@@H]1CCCN1C(=O)[C@@H]1CCCN1C(C)=O)[C@@H](C)CC)[C@@H](C)O)C(C)C)[C@@H](C)O)C(=O)N[C@@H](C)C(N)=O [[Acetyl-Pro^4]-CRF] | stimulates the secretion of ACTH and β-END-LI | very significant lowering of blood pressure to a greater extent than CRF
3 | CC[C@H](C)[C@H](NC(=O)[C@H](CCC(=O)O)NC(=O)[C@@H](NC(=O)[C@H](CCSC)NC(=O)[C@H](CCCCN)NC(=O)[C@H](CCCNC(=N)N)NC(=O)[C@H](CC(C)C)NC(=O)[C@H](CC(C)C)NC(=O)[C@H](CCC(=O)O)NC(=O)[C@H](CC(C)C)NC(=O)[C@H](CO)NC(=O)[C@H](CC(C)C)NC(=O)[C@H](CC(=O)O)NC(=O)[C@@H](NC(=O)[C@H](CO)NC(=O)[C@@H](NC(=O)[C@@H]1CCCN1C(=O)[C@@H]1CCCN1C(=O)CNC(=O)[C@@H]1CCC(=O)N1)[C@@H](C)CC)[C@@H](C)CC)[C@@H](C)CC)C(=O)N[C@@H](CCC(=O)O)C(=O)N[C@@H](CCCCN)C(=O)N[C@@H](CCC(N)=O)C(=O)N[C@@H](CCC(=O)O)C(=O)N[C@@H](CCCCN)C(=O)N[C@@H](CCC(=O)O)C(=O)N[C@@H](CCCCN)C(=O)N[C@@H](CCC(N)=O)C(=O)N[C@@H](CCC(N)=O)C(=O)N[C@@H](C)C(=O)N[C@@H](C)C(=O)N[C@@H](CC(N)=O)C(=O)N[C@@H](CC(N)=O)C(=O)N[C@@H](CCCNC(=N)N)C(=O)N[C@@H](CC(C)C)C(=O)N[C@@H](CC(C)C)C(=O)N[C@@H](CC(C)C)C(=O)N[C@@H](CC(=O)O)C(=O)N[C@@H](C)C(=O)N[C@@H](C)C(N)=O [[Ala^39, Ala^40]-sauvagine] | stimulates the secretion of ACTH and β-END-LI | very significant lowering of blood pressure
4 | CC[C@H](C)[C@H](NC(=O)[C@H](CC(=O)O)NC(=O)[C@H](CC(C)C)NC(=O)[C@H](CC(C)C)NC(=O)[C@H](CCCCN)NC(=O)[C@H](CCCNC(=N)N)NC(=O)[C@H](CC(N)=O)NC(=O)[C@H](CO)NC(=O)[C@H](Cc1c[nH]cn1)NC(=O)[C@H](C)NC(=O)[C@H](CCC(N)=O)NC(=O)[C@H](CCC(N)=O)NC(=O)[C@H](C)NC(=O)[C@H](CC(C)C)NC(=O)[C@H](CCC(N)=O)NC(=O)[C@H](CC(=O)O)NC(=O)[C@H](C)NC(=O)[C@H](CCCCN)NC(=O)[C@@H](NC(=O)[C@H](CCSC)NC(=O)[C@H](CCC(=O)O)NC(=O)[C@H](CC(C)C)NC(=O)[C@@H](NC(=O)[C@H](CCC(=O)O)NC(=O)[C@H](CCCNC(=N)N)NC(=O)[C@H](CC(C)C)NC(=O)[C@H](CC(C)C)NC(=O)[C@H](Cc1c[nH]cn1)NC(=O)[C@H](CC(C)C)NC(=O)[C@@H](NC(=O)[C@H](CC(C)C)NC(=O)[C@H](CC(=O)O)NC(=O)[C@H](CC(C)C)NC(=O)[C@H](CO)NC(=O)[C@@H](NC(=O)[C@@H]1CCCN1C(=O)[C@@H]1CCCN1C(=O)[C@H](CCC(=O)O)NC(=O)[C@H](C)NC(=O)c1ccccc1)[C@@H](C)CC)[C@@H](C)O)C(C)C)[C@@H](C)O)C(=O)N[C@@H](C)C(N)=O [[Benzoyl-Ala^1, des Gln^2, Leu^12]-CRF] (Bz-AEPPISLDLTLHLLREVLEMTKADQLAQQAHSNRKLLDIA-NH2) | stimulates the secretion of ACTH and β-END-LI | very significant lowering of blood pressure
5 | CC[C@H](C)[C@H](NC(=O)[C@@H](NC(=O)[C@H](CC(=O)O)NC(=O)[C@H](CC(C)C)NC(=O)[C@H](CC(C)C)NC(=O)[C@H](CC(C)C)NC(=O)[C@H](CCCNC(=N)N)NC(=O)[C@H](CC(N)=O)NC(=O)[C@H](CC(N)=O)NC(=O)[C@H](C)NC(=O)[C@H](C)NC(=O)[C@H](CCC(N)=O)NC(=O)[C@H](CCC(N)=O)NC(=O)[C@H](CCCCN)NC(=O)CNC(=O)[C@H](CCCCN)NC(=O)[C@H](CCC(=O)O)NC(=O)[C@H](CCC(N)=O)NC(=O)[C@H](CCCCN)NC(=O)[C@H](CCC(=O)O)NC(=O)[C@@H](NC(=O)[C@H](CCC(=O)O)NC(=O)[C@@H](NC(=O)[C@H](CCSC)NC(=O)[C@H](CCCCN)NC(=O)[C@H](CCCNC(=N)N)NC(=O)[C@H](CC(C)C)NC(=O)[C@H](CC(C)C)NC(=O)[C@H](CCC(=O)O)NC(=O)[C@H](CC(C)C)NC(=O)[C@H](CO)NC(=O)[C@H](CC(C)C)NC(=O)[C@H](CC(=O)O)NC(=O)[C@@H](NC(=O)[C@H](CO)NC(=O)[C@@H](NC(=O)[C@@H]1CCCN1C(=O)[C@@H]1CCCN1C(=O)CNC(=O)[C@@H]1CCC(=O)N1)[C@@H](C)CC)[C@@H](C)CC)[C@@H](C)CC)[C@@H](C)CC)[C@@H](C)O)C(N)=O [[Gly^26]-sauvagine] | stimulates the secretion of ACTH and β-END-LI | very significant lowering of blood pressure
6 | CC[C@H](C)[C@H](NC(=O)[C@H](CC(=O)O)NC(=O)[C@H](CC(C)C)NC(=O)[C@H](CC(C)C)NC(=O)[C@H](CCCCN)NC(=O)[C@H](CCCNC(=N)N)NC(=O)[C@H](CC(N)=O)NC(=O)[C@H](CO)NC(=O)[C@H](Cc1c[nH]cn1)NC(=O)[C@H](C)NC(=O)[C@H](CCC(N)=O)NC(=O)[C@H](CCC(N)=O)NC(=O)[C@H](C)NC(=O)[C@H](CC(C)C)NC(=O)[C@H](CCC(N)=O)NC(=O)[C@H](CC(=O)O)NC(=O)[C@H](C)NC(=O)[C@H](CCCCN)NC(=O)[C@@H](NC(=O)[C@H](CCSC)NC(=O)[C@H](CCC(=O)O)NC(=O)[C@H](CC(C)C)NC(=O)[C@@H](NC(=O)[C@H](CCC(=O)O)NC(=O)[C@H](CCCNC(=N)N)NC(=O)[C@H](CC(C)C)NC(=O)[C@H](CC(C)C)NC(=O)[C@H](Cc1c[nH]cn1)NC(=O)[C@H](Cc1ccccc1)NC(=O)[C@@H](NC(=O)[C@H](CC(C)C)NC(=O)[C@H](CC(=O)O)NC(=O)[C@H](CC(C)C)NC(=O)[C@H](CO)NC(=O)[C@@H](NC(=O)[C@@H]1CCCN1C(=O)[C@@H]1CCCN1C(=O)[C@H](CCC(=O)O)NC(=O)[C@H](CCC(N)=O)NC(=O)[C@@H](N)CO)[C@@H](C)CC)[C@@H](C)O)C(C)C)[C@@H](C)O)C(N)=O [[des Ala^41]-CRF] (H-SQEPPISLDLTFHLLREVLEMTKADQLAQQAHSNRKLLDI-NH2) | stimulates the secretion of ACTH and β-END-LI | very significant lowering of blood pressure
